According to US20030143608A1, “Drug response marker in beta-1 adrenergic receptor gene” (Myriad Genetics, Incorporated, priority 2001, published 2003):

System: patients with symptoms diagnosed as hypertension
Experiment: Antihypertensive drug response by beta-1 adrenergic receptor A145G genotype in hypertensive patients
Assay type: in vivo, human
Conditions: for Average Change in Blood Pressure: Sardinian hypertensive patients, atenolol 100 mg b.i.d., HCTZ 25 mg u.i.d. or fosinopril 20 mg u.i.d. for 2 months, change from baseline
Protocol: For our study, three drugs—fosinopril, atenolol, and hydrochlorothiazide—were administered to patients with symptoms diagnosed as hypertension (a diastolic blood pressure above 89 mmHg and a systolic blood pressure above 139 mmHg). Since essential hypertension is a complex multifactorial disease with an environmental component and a genetic interaction basis, we selected a […] patient sample from Sardinia, which ensured genetic homogeneity. Piazza, Science 260:1767-9 (1993). Patients were unrelated Sardinian from at least 2 generations. Approximately 75% of the patients were previously untreated for hypertension, whereas the remaining were absent from antihypertensive treatment for at least 6 months prior to testing, thus ensuring that modifications in blood pressure during the study were mostly due to the drug under study and not the spurious effects related to previous treatments.
After a 2-month pre-treatment period, during which blood pressure was measured periodically, patients with blood pressure (as average of 3 measurements performed in standard conditions) still over 140/90 (n=494) where randomly assigned to one of the following drugs: atenolol 100 mg b.i.d., hydrochlorothiazide (HCTZ) 25 mg u.i.d. or fosinopril 20 mg u.i.d. for 2 months. After a treatment was begun, patient blood pressure, heart rate and body weight were assessed every 2 weeks, and values at +4 and +8 weeks tabulated and considered for analysis.
Genomic DNA was extracted from the leukocytes of each individual using a genomic DNA extraction kit based on […]. Genomic DNA of the beta-1 adrenergic receptor gene was then amplified using standard PCR procedures. The PCR product was diluted 1:10 in EDTA 1 mM and then submitted for automated sequencing carried out with an Applied Biosystems Sequencer using dye primer chemistry.
To evaluate the association between each patient's genotype and the response of the individual to the respective drug, the change in blood pressure was analyzed from the baseline to the follow-up measurements at 4 and 8 weeks. A linear regression model was then used to adjust for the effect of baseline blood pressure levels and sex of the individual. The difference in average change of blood pressure between genotypes for each time interval was determined through analysis of covariance.

[1] = genotype AA (homozygous wild-type)
[2] = genotype GG (homozygous A145G variant)

CC(C)NCC(O)COc1ccc(CC(N)=O)cc1 (stereo not shown) [Atenolol, atenolol]
Average Change in Blood Pressure [1]: −17.3 mmHg
Average Change in Blood Pressure (genotype AG (heterozygous)): −17.9 mmHg
Average Change in Blood Pressure [2]: −10.6 mmHg

NS(=O)(=O)c1cc2c(cc1Cl)NCNS2(=O)=O [Hydrochlorothiazide, hydrochlorothiazide]
Average Change in Blood Pressure [1]: −10.2 mmHg
Average Change in Blood Pressure (genotype AG (heterozygous)): −12.9 mmHg
Average Change in Blood Pressure [2]: −30.5 mmHg
relative blood pressure response between drugs (individuals homozygous for A145G (GG), analysis of covariance, adjusted for baseline blood pressure and sex): more likely (p=0.0055) to experience a significant decrease in blood pressure

CCC(=O)O[C@@H](O[P@](=O)(CCCCc1ccccc1)CC(=O)N1C[C@H](C2CCCCC2)C[C@H]1C(=O)O)C(C)C [Fosinopril, fosinopril]
Average Change in Blood Pressure [1]: −12.3 mmHg
Average Change in Blood Pressure (genotype AG (heterozygous)): −8.6 mmHg
Average Change in Blood Pressure [2]: −23.0 mmHg
